Reference: ChEMBL document CHEMBL1201862, “PubChem BioAssay data set” (2004)
Calls of active or inactive are those of the source.

How the values were obtained:
[1] = target: T1, Cytochrome P450 1A2 (Homo sapiens, UniProt P05177);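 note: PubChem cytochrome P450 panel assay, CYP1A2 panel member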
T1 sequence (P05177 whole entry): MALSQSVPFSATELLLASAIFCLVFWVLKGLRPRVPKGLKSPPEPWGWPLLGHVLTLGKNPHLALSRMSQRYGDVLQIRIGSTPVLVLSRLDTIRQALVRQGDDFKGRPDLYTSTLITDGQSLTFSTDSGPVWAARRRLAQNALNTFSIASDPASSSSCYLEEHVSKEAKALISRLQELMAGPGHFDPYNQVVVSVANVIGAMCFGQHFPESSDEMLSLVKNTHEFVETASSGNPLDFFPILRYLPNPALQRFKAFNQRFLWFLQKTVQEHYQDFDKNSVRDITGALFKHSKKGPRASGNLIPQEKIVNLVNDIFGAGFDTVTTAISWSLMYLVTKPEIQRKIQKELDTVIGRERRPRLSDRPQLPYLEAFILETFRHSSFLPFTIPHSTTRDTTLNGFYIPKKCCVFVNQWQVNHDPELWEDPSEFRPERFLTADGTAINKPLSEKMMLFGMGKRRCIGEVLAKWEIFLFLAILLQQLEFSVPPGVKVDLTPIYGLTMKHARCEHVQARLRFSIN

[2] = target: Cytochrome P450 2D6 (Homo sapiens, UniProt P10635);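 note: CYP2D6 member of a cytochrome P450 panel assay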
[3] = target: Trypsin (Sus scrofa, UniProt P00761); experiment: porcine trypsin inhibitors, dose response, selectivity assay for Rce1 protease inhibitor project, biochemical, quenched peptide fluorescence, cherry-pick (AID 488789)
[4] = target: T2, CAAX prenyl protease 2 (Saccharomyces cerevisiae S288c, UniProt Q03530); type: biochemical
T2 sequence (Q03530 whole entry): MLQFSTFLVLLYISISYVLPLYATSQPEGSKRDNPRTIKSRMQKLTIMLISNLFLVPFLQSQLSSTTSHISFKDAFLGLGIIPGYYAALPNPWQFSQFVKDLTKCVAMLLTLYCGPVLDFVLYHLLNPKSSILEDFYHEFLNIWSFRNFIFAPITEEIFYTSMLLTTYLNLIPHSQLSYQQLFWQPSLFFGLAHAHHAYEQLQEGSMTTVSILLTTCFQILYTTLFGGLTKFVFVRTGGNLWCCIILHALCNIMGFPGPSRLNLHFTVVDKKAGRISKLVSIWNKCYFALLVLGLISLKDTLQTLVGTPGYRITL

[5] = target: Intestinal-type alkaline phosphatase (Mus musculus, UniProt P24822); experiment: PubChem AID 488785; type: functional
[6] = target: T3, Alkaline phosphatase, tissue-nonspecific isozyme (Homo sapiens, UniProt P05186); experiment: TNAP enzyme inhibition by screening hits, dose response, selectivity assay for mouse IAP inhibitor project, biochemical, human TNAP, uHTS hits (AID 488906); type: functional
T3 sequence (P05186 whole entry): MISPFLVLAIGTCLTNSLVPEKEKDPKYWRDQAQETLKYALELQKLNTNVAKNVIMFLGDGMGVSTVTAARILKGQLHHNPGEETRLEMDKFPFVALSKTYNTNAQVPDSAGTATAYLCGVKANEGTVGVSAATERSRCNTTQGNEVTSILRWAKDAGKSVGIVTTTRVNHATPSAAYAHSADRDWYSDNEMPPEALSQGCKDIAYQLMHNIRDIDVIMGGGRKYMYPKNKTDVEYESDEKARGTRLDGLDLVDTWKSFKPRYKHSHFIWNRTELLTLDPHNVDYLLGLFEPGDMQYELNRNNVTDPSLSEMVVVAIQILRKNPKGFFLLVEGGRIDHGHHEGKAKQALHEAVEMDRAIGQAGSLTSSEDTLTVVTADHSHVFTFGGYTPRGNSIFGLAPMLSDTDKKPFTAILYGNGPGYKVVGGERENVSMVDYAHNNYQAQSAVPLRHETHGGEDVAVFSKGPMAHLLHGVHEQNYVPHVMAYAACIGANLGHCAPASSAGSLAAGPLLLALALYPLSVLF

[7] = target: Intestinal-type alkaline phosphatase (Homo sapiens, UniProt P09923); experiment: inhibition of human intestinal alkaline phosphatase – biochemical, dose response (AID 488876); type: functional
[8] = Luminescence Cell-Based Dose Retest to Confirm Inhibitors of Cancer Stem Cells. [Related pubchem assays (depositor defined):AID2717, AID2721]; type: functional; details: Homo sapiens
[9] = cytotoxicity in HMLE control line with eGFP shRNA, dose response, counter-screen for HMLE_sh_ECad selective toxicity project, cell-based, HMLE_sh_eGFP, luminescence (AID 463074); type: functional, Homo sapiens;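 note: HMLE human mammary epithelial cells expressing control shRNA against eGFP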
[10] = target: T4, Voltage-gated N-type calcium channel alpha-1B subunit/Amyloid beta A4 precursor protein-binding family A member 1 (Homo sapiens, UniProt Q00975+Q02410); type: protein assay
[11] = target: T4, Voltage-gated N-type calcium channel alpha-1B subunit/Amyloid beta A4 precursor protein-binding family A member 1; type: protein assay; remark: listed apart in the source
[12] = tested on: Escherichia coli; experiment: microbe, parasite or virus in culture
[13] = tested on: Streptococcus sp. 'group A'; experiment: growth inhibition of control SK(-) GAS strain, dose response, counter-screen for streptokinase expression inhibitor project, luminescence, kanamycin, BacTiterGlo, confirmation (AID 1900); type: functional, organism-based
[14] = target: T5, Streptokinase A (Streptococcus pyogenes serotype M1, UniProt P10520); experiment: S. pyogenes streptokinase expression inhibitors, potency, dose response, plasminogen activation absorbance, OD405 (AID 1914); type: functional, Streptococcus pyogenes M1 GAS;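 note: secreted streptokinase activity via plasminogen activation per viability signal from cell pellet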
T5 sequence (P10520 whole entry): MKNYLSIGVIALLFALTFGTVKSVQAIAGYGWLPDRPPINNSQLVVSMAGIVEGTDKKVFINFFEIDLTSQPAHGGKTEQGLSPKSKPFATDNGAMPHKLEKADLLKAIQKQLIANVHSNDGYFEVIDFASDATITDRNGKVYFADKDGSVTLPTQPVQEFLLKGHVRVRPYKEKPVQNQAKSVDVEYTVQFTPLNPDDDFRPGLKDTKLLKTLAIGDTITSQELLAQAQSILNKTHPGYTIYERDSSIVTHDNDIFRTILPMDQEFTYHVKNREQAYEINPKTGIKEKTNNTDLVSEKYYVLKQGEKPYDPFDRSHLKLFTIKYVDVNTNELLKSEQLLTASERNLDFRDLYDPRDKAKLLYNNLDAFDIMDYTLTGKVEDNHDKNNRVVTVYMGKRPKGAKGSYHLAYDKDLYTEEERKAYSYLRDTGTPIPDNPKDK

[15] = tested on: Streptococcus; experiment: Group A Streptococcus viability loss, dose response, counter-screen for streptokinase expression inhibitor project, luminescence, BacTiterGlo (AID 1915); type: functional, organism-based;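 note: potency for reduction of bacterial viability or growth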
[16] = tested on: HEK293; experiment: cells; type: functional, cell-based; details: Homo sapiens
[17] = target: T6, Nuclear receptor subfamily 0 group B member 1 (Homo sapiens, UniProt P51843); experiment: Luminescence-based cell-based high throughput dose response assay for inhibitors of the orphan nuclear receptor subfamily 0, group B, member 1 (DAX1; NR0B1). [Related pubchem assays (depositor defined):AID504766, AID504790]; type: functional
T6 sequence (P51843 whole entry): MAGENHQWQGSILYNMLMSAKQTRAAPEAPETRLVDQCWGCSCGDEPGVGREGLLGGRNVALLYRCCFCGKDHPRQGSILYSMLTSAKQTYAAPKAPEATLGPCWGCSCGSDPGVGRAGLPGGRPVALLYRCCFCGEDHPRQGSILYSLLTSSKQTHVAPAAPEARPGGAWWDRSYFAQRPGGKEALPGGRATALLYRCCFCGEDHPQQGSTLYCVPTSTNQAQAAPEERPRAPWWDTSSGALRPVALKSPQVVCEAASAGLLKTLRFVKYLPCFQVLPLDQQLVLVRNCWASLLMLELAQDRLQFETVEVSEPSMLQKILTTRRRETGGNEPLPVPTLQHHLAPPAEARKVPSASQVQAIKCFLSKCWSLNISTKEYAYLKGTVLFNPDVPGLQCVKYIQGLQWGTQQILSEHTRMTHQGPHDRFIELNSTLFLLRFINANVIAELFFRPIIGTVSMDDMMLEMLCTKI

[18] = target: Cytochrome P450 2C19 (Homo sapiens, UniProt P33261); experiment: Cytochrome panel assay with activity outcomes. Panel member name: p450-cyp2c19 Compounds with AC50 equal or less than 10 uM are considered active; type: functional
[19] = target: T7, Mannose-6-phosphate isomerase (Homo sapiens, UniProt P34949); experiment: PMI enzyme inhibitors, confirmation, biochemical, fluorescence intensity (AID 1535)
T7 sequence (P34949 whole entry): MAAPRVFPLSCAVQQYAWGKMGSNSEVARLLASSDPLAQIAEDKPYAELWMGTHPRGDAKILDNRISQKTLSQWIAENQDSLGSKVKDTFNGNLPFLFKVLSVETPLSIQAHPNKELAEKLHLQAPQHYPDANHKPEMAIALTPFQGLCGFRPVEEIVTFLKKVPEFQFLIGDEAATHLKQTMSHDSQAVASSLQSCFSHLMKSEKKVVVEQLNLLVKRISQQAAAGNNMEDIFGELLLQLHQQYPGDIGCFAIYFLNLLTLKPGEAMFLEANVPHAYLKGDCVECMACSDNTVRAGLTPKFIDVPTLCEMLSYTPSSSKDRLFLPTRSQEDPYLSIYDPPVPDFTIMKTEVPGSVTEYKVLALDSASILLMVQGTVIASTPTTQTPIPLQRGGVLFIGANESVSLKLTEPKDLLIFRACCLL

[20] = target: T8, Phosphomannomutase 2 (Homo sapiens, UniProt O15305); experiment: Counter screen SAR assay for PMM2 inhibitors via a fluorescence intensity assay. [Related pubchem assays (depositor defined):AID1545, AID1574]
T8 sequence (O15305 whole entry): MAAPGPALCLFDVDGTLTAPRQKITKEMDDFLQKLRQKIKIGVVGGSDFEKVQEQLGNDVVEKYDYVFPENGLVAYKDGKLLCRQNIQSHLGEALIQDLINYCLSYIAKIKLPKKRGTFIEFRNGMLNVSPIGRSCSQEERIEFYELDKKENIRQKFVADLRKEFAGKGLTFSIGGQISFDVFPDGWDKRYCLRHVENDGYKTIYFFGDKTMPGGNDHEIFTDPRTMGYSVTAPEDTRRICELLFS

[21] = target: T9, Phosphoethanolamine/phosphocholine phosphatase (Homo sapiens, UniProt Q8TCT1); experiment: SAR assay for compounds that inhibit PHOSPHO1. [Related pubchem assays (depositor defined):AID1545, AID1565, AID1574]
T9 sequence (Q8TCT1 whole entry): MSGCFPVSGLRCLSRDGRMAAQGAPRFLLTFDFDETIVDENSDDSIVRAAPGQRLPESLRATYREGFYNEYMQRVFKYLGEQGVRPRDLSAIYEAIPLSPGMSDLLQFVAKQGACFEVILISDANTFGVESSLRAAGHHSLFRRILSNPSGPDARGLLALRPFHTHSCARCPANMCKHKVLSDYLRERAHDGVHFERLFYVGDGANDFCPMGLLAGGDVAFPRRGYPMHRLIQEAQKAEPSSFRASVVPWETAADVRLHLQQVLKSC

[22] = tested on: Vero; experiment: cells; type: functional, cell-based; details: Chlorocebus sabaeus

T4 sequence (Q00975 whole entry): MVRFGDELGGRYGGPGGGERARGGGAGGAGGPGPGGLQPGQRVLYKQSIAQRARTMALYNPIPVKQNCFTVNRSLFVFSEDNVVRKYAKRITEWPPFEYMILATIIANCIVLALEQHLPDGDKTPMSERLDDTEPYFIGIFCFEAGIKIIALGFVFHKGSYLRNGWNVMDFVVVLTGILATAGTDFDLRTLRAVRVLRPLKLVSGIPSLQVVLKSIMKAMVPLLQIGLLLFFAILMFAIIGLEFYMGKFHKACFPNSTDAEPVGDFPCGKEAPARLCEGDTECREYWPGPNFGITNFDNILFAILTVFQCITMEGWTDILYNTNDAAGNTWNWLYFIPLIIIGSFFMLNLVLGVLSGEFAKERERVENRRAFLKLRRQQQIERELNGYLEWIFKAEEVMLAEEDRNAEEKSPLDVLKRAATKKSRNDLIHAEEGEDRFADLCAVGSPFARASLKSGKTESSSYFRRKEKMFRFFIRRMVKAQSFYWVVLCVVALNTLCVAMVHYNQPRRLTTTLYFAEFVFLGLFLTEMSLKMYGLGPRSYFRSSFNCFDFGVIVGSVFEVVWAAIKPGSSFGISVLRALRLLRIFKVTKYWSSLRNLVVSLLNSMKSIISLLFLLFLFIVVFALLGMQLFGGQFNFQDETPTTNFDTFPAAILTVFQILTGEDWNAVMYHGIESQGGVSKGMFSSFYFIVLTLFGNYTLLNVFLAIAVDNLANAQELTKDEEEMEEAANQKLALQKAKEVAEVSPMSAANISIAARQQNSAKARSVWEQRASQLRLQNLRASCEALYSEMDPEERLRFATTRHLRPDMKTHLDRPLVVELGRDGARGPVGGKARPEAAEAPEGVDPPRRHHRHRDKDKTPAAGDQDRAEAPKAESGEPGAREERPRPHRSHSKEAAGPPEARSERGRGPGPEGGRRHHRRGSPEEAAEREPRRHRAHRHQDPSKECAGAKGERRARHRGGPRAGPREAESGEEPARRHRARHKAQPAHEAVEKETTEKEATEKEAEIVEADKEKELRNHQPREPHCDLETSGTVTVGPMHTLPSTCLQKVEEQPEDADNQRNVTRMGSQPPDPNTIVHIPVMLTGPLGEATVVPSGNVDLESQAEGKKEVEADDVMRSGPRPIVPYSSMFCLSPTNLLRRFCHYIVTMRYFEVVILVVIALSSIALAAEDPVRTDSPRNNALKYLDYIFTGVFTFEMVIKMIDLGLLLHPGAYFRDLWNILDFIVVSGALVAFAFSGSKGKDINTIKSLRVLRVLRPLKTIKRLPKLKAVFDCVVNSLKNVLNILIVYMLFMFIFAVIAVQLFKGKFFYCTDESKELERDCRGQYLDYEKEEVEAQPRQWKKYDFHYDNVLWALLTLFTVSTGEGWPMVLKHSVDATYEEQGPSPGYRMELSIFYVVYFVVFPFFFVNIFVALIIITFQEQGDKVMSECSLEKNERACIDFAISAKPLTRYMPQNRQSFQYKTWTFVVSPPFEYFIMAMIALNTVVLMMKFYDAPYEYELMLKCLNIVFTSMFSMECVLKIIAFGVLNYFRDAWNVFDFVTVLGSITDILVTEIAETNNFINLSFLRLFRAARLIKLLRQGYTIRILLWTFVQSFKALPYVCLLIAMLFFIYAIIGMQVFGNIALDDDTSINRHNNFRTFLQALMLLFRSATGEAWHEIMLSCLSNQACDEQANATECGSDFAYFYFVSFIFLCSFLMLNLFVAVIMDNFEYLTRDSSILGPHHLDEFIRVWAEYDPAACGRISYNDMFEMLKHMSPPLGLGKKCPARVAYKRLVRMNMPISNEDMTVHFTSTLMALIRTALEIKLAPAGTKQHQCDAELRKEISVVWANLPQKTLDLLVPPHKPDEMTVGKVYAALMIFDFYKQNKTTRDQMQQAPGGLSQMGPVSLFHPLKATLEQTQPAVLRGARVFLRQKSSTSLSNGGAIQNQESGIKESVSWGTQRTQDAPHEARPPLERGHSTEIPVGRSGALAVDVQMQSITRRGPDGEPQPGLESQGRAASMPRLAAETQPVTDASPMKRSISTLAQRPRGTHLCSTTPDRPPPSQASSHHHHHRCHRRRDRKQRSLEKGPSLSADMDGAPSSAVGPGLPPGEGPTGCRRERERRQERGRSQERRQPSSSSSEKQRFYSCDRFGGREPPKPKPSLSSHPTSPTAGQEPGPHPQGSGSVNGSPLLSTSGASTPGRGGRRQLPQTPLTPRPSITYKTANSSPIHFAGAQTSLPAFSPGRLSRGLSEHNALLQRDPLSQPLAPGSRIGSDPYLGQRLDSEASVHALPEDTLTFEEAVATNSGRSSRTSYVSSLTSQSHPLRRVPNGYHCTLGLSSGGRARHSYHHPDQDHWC
T4 sequence (Q02410 whole entry): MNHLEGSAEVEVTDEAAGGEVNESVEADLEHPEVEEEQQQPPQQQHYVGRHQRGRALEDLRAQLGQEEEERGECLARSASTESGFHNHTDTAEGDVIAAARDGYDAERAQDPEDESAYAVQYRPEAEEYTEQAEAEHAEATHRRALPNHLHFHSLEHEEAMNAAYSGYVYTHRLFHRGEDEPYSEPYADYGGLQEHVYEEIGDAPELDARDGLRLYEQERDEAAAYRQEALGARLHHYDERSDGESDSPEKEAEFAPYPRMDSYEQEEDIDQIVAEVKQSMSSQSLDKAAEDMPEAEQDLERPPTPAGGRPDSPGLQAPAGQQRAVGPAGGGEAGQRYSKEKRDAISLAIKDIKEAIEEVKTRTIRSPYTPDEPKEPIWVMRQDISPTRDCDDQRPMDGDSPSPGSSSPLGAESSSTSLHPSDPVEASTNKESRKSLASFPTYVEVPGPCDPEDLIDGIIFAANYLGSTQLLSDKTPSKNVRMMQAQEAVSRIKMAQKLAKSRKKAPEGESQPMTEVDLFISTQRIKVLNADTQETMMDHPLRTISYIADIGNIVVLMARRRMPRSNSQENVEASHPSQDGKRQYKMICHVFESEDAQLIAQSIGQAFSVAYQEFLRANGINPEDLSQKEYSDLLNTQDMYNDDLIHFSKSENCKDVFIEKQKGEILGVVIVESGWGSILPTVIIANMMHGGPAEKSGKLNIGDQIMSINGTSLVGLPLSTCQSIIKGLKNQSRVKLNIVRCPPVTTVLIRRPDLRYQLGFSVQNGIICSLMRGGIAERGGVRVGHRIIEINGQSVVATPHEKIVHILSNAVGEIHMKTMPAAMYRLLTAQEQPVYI
Cytochrome P450 2D6, sequence (P10635 whole entry): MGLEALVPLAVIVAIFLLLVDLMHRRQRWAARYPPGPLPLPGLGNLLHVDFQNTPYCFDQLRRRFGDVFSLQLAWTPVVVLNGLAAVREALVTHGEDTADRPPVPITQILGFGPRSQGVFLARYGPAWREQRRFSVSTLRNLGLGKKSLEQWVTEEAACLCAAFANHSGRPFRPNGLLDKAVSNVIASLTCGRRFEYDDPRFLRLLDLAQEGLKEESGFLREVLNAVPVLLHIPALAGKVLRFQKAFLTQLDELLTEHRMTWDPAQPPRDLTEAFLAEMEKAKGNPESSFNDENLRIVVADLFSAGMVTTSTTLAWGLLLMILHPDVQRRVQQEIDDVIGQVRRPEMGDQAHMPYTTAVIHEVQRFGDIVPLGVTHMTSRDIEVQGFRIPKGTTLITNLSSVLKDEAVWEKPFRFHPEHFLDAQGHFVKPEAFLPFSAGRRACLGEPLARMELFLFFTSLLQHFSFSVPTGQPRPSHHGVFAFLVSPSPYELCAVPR
Intestinal-type alkaline phosphatase (Mus musculus, UniProt P24822), sequence (P24822 whole entry): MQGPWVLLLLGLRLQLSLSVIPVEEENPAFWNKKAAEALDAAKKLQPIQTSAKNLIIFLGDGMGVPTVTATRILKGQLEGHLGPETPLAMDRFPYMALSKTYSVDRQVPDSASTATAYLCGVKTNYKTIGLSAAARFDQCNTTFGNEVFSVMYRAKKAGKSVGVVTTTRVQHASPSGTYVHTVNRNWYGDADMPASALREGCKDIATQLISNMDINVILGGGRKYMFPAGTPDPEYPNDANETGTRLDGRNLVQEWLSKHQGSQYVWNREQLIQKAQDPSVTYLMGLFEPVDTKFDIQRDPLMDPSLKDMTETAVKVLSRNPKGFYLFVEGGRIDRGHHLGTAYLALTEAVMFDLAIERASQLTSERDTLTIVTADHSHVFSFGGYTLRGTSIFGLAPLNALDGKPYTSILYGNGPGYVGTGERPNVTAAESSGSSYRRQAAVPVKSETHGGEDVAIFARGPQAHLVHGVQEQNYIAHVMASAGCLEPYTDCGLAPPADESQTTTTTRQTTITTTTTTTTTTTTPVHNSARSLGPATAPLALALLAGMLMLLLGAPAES
Intestinal-type alkaline phosphatase (Homo sapiens, UniProt P09923), sequence (P09923 whole entry): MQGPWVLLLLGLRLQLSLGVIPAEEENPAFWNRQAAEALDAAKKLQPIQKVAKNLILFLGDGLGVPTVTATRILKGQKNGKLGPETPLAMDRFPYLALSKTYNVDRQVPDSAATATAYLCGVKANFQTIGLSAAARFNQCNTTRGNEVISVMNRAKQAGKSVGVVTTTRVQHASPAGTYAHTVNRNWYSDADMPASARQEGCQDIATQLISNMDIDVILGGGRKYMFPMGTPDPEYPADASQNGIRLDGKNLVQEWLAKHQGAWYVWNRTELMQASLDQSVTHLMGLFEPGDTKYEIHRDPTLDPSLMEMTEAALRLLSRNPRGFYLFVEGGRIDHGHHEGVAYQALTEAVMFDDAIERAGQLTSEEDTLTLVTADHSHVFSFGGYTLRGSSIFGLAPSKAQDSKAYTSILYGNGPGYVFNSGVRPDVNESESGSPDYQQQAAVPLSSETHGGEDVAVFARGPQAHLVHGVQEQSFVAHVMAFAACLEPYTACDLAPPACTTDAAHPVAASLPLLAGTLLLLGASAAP
Trypsin, sequence (P00761 whole entry): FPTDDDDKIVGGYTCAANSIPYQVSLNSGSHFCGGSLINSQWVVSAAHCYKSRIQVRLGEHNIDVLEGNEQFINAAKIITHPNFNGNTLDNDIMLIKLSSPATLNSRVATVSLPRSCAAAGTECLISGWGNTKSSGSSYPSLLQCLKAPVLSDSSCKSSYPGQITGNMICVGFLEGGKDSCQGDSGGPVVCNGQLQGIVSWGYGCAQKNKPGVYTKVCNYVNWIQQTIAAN

SMILES: COc1ccc2c(c1)c(CC(=O)O)c(C)n2C(=O)c1ccccc1
- AC50 [1]: 12.6 µM (inconclusive)
- AC50 [2]: inconclusive

SMILES: CC1CCN(C(=O)c2cc3nc(-c4ccccc4)cc(-c4ccccc4)n3n2)CC1
- AC50 [3]: > 100 µM (inactive)
- AC50 [4]: 19.1 µM (active)

SMILES: FC(F)Oc1ccc(NC(S)=NC2CCSc3ccccc32)cc1 (centres undefined)
- IC50 [5]: 5.64 µM (active)
- IC50 [6]: > 100 µM (inactive)
- IC50 [7]: > 100 µM (inactive)

SMILES: COc1cccc(S(=O)(=O)NCc2ccc(C(=O)Nc3ccc(Cl)cc3)cc2)c1
- AC50 [8]: 35 µM (active)
- AC50 [9]: 102 µM (active)

SMILES: Cc1ccc(C)c(NS(=O)(=O)c2ccc3[nH]c(=O)oc3c2)c1
- IC50 [5]: 15.7 µM (active)
- IC50 [6]: > 100 µM (inactive)
- IC50 [7]: > 100 µM (inactive)

SMILES: CCOC(=O)c1cc(-c2ccc(F)cc2)nc2c1c(=O)[nH]c(=O)n2Cc1ccccc1
- IC50 [10]: > 56.8 µM (not active)
- IC50 [11]: > 50 µM (inactive)

SMILES: CCOC(=O)c1sc(-c2ccccc2)cc1NC(=O)Nc1ccc([N+](=O)[O-])cc1
- AC50 [12]: 35 µM (active)

SMILES: C=CCN(CC=C)S(=O)(=O)c1ccc(NC(=S)NC(=O)C2CC2)cc1
- EC50 [13]: > 150 µM (not active)
- EC50 [14]: > 150 µM (not active)
- EC50 [15]: > 150 µM (not active)
- AC50 [12]: 29.4 µM (active)

SMILES: O=C(CSc1ccc2ccccc2c1Br)Nc1cccc(S(=O)(=O)NC2=NCCCCC2)c1
- AC50 [8]: 1.92 µM (active)
- AC50 [9]: 48 µM (active)

SMILES: COc1ccc(N2CC(C(=O)Nc3cc(C)on3)CC2=O)cc1 (centres undefined)
- AC50 [2]: inconclusive

SMILES: Cc1cccnc1NC(=S)Nc1ccc(F)cc1F
- IC50 [10]: 11.5 µM (active)
- IC50 [11]: > 50 µM (inactive)

SMILES: O=S(=O)(NCC1NCCc2ccccc21)c1ccccc1 (centres undefined)
- IC50 [16]: > 67.6 µM (inactive)
- IC50 [17]: > 67.6 µM (inactive)

SMILES: CN(C)CCNC(=O)C1CCCNC1=O (centres undefined)
- AC50 [18]: inconclusive
- AC50 [2]: inconclusive

SMILES: Cc1cccc(CN2CCN(C(S)=Nc3ccccc3)CC2)c1
- IC50 [16]: > 67.6 µM (inactive)
- IC50 [17]: > 67.6 µM (inactive)

SMILES: Cc1cccc(-n2sc3ccccc3c2=O)c1
- IC50 [19]: 5.29 µM (active)
- IC50 [20]: 22.3 µM (active)
- IC50 [21]: 2.73 µM (inactive)

SMILES: Cc1cccc(-n2sc3cc(F)ccc3c2=O)c1C
- IC50 [19]: 22.7 µM (active)
- IC50 [20]: 18.3 µM (active)
- IC50 [21]: 6.54 µM (inactive)

SMILES: Cc1c(Cl)cccc1-n1sc2cc([N+](=O)[O-])cc(OCC(F)(F)F)c2c1=O
- IC50 [19]: 3.03 µM (active)
- IC50 [20]: 9.06 µM (active)
- IC50 [21]: 0.555 µM (active)

SMILES: CCOC(=O)C1(Cc2cccc(F)c2)CCN(C2CCOCC2)CC1
- AC50 [12]: 35.1 µM (active)

SMILES: CCCn1cnc2c(SCc3ccccc3Cl)nc(N)nc21
- IC50 [22]: > 25 µM (active)

SMILES: C=CCn1/c(=N/C(=O)c2ccc(S(=O)(=O)N3CCCc4ccccc43)cc2)sc2cc(S(N)(=O)=O)ccc21
- AC50 [8]: 2.01 µM (active)
- AC50 [9]: 84.8 µM (active)

SMILES: COCc1c(C(=O)N/N=C/C2CC=CCC2)nnn1-c1nonc1N (centres undefined)
- AC50 [4]: 29.9 µM (active)
